Consider 1 compound from patent publication US20240287054A1, “COMPOUNDS THAT BIND NON-CANONICAL G-QUADRUPLEX STRUCTURES AND METHODS OF MAKING AND USING THE SAME” (The U.S.A., as Represented by the Secretary, Department of …, priority 2021, published 2024).

Structures are written as SMILES.

The subject of test [1] is MYCN G4 DNA. Nature of the test: Surface plasmon resonance (SPR) with immobilized biotinylated MYCN G4 DNA. It is filed as binding, human. On the procedure: Surface plasmon resonance (SPR) analysis. The SPR binding assays were performed with a BIAcore 3000 (GE Healthcare) instrument. A CM5 SPR biochip was loaded into the system and primed with running buffer (10 mM Tris, pH7.0, 100 mM KCl, 0.005% Tween 20, 5% DMSO) with a flow rate of 5 μL/min. Then both Flow Cell (Fc) 1 and 2 were activated by EDC/NHS (0.4 M/0.1 M) aqueous solution for 15 min, followed with an injection of streptavidin (SA) solution (0.2 mg/mL in 10 mM sodium acetate buffer, pH4.5) for 30 minutes. After the immobilization amount of SA reached 8,000-10,000 RU, the surface was deactivated by flowing 1 M Ethanolamine aqueous solution (pH 8.5) for 10 min and regenerated with 10 mM NaOH for 2 min to remove the unbound SA. In the meantime, biotinylated MYCN G4 DNA was prepared at 5 μM in the annealing buffer and heated up to 95° C. for 5 min and slowly cooled down. After annealing, a total of 150 μL solution was injected in the Fc 2 of SPR system for 30 min to immobilize DNA onto the chip surface. The small molecule solutions were tested once the baseline was stable.
To detect the binding signal as well as the binding affinity, a higher flowing rate (25 μL/min) was used in both Fc 1 (reference) and Fc 2 (DNA). Each of the compound solution was prepared at 20× designed the concentrations in DMSO, and then diluted into non-DMSO running buffer, resulting in a final concentration of 5% DMSO. Then, a total of 50 μL compound solution was injected in Fc 1-2 flow path for 120 s for association, followed with 200 s running of buffer for dissociation. An injection of 50 μL regeneration buffer (1 M KCl) could be performed between two samples if necessary. The final binding curve was obtained by reference subtraction. To determine the binding affinity (KD), a series of diluted compound solutions were injected and KD was calculated by BIAevaluation 4.0 software (GE Healthcare) using Langmuir 1:1 binding model.
In this example, SPR binding assays were performed to analyze binding activity of representative bivalent compounds of the present disclosure. The compounds of this example included a non-canonical binder component and a G4 stacker component. A BIAcore 3000 (GE Healthcare) instrument was used. A CM5 SPR biochip was used and primed with running buffer (10 mM Tris, pH7.0, 100 mM KCl, 0.005% Tween 20, 5% DMSO). To immobilize the compounds onto the chip surface, the flow rate was set as 5 μL/min. Then the carboxylated dextran on the chip surface was activated by EDC/NHS (0.4 M/0.1 M) aqueous solution for 15 min, followed with an injection of streptavidin (SA) solution (0.2 mg/mL in 10 mM sodium acetate buffer, pH 4.5) for 30 minutes. After the immobilization amount of SA, the surface was quenched by injecting 1 M ethanolamine (EA) aqueous solution (pH 8.5) for 10 min and regenerated with 10 mM NaOH for 2 min to remove the physical adsorption. Furthermore, biotinylated MYCN G4 DNA was prepared at 5 μM in the annealing buffer and heated up to 95° C. for 5 min followed with slowly cooling down to room temperature within 1 h. After annealing, a total of 150 μL solution was injected in the Fc 2 of SPR system for 30 min to immobilize DNA onto the chip surface. The compound solutions were then tested once the baseline was stable.
To detect the binding signal as well as the binding affinity, a higher flowing rate (25 μL/min) was used in both Fc 1 (blank) and Fc 2 (target). Each of the compound solutions was prepared at 20× designed the concentrations in DMSO, and then diluted into non-DMSO running buffer, resulting in a final concentration of 5% DMSO. Then, a total of 50 μL compound solution was injected in Fc 1-2 flow path for 120 s for association, followed with 200 s running of buffer for dissociation. An injection of 50 μL regeneration buffer (1 M KCl) could be performed between two samples if necessary. The final binding curve was obtained by referencing the blank channel (Fc 1). […]
A general note: In SPR one partner is held on a chip, and binding of the other changes the refractive index at the surface.

The test system of test [2] is MYCN G4 DNA. The test can be described thus: Circular dichroism (CD) thermal melting assay of MYCN G4. The class given is binding, human. The following applies: 10 mM sodium phosphate pH 7.0, 5 mM KCl, 5 μM DNA. On the procedure:
For thermal melt assay, MYCN oligonucleotides were prepared in a low KCl buffer (10 mM Tris, pH7.0, 5 mM KCl) at 5 μM concentration. To test the stabilization effect, G4 samples were incubated with and without 20 μM compound (final solution containing 5% DMSO). Then a total of 300 μL solution was added in a cuvette and heated from 20° C. to 95° C. in a CD spectrometer with an interval of 1° C. To calculate the melting temperature (Tm), the peak of CD spectrum at 263 nm was tracked, and […] vs temperature was plotted and fitted using a nonlinear sigmoidal dose-response model with a variable slope in GraphPad Prism 8 software. The shifting of melting temperature (ΔTm) was calculated using Tm (compound)−Tm (DMSO).
For CD melting assay, MYCN oligonucleotides were prepared in KCl buffer (10 mM sodium phosphate, pH7.0, 5 mM KCl) at 5 μM concentration. To test the stabilization effect of the compounds, MYCN G4 DNA samples were mixed with/without the compound (final solution containing 5% DMSO) at designed concentration. Then a total of 300 μL solution was added in a cuvette and heated from 20 to 80° C. in a CD spectrometer with an interval of 1° C. To calculate the melting temperature (Tm), the peak of CD spectrum at 263 nm was tracked, and […] vs temperature was plotted and fitted using a nonlinear sigmoidal dose-response model with a variable slope in GraphPad Prism 8 software.
(CD spectra are sensitive to the conformation of chiral molecules.)

The test system of the next test is dsDNA. Nature of the test: SPR binding to dsDNA. The following applies: up to 5 μM compound injection.
The target in another test is MYCN hairpin-G4 DNA. The test can be described thus: FIA using compound fluorescence (Ex 340/Em 500 nm), titration with unlabeled MYCN G4 DNA. The class given is binding, human. The following applies: 100 nM compound titrated with folded unlabeled MYCN G4. On the procedure: In this study, FIA was used for validating the bindings between certain bivalent and MYCN G4 oligos. To measure the binding affinity, a solution of each compound was prepared in triplicate in a 96 well-plate (Costar, black side clear bottom), resulting in a final concentration of 100 nM (5% final DMSO in the working solution). Unlabeled MYCN G4 DNA was folded based on the above-mentioned annealing method, then added into the well plate resulting in different concentrations by a seral dilution. The plate was incubated at room temperature for 30 min, followed by centrifuging at 500 rpm for 2 minutes. The fluorescence intensity was then quantitatively recorded by a Synergy Mx microplate reader (BioTek) at Ex 340 nm/Em 500 nm. The fluorescence intensities were then normalized, and the binding affinity was calculated by fitting the curve using one-site total model in GraphPad Prism 8.3.1 software.

The Kd is the equilibrium constant for the complex coming apart. For the compound `COc1ccc2nc3cc(Cl)ccc3c(NCCCNCCCl)c2c1` [Acridine ICR 191, reference compound], the SPR binding kinetics entry in the test with MYCN G4 DNA [1] (MYCN G4 binding curves) is “fast-on/off”. The Kd on MYCN G4 DNA [1] (MYCN hairpin G4, SPR titration, read-out: KD by SPR) is 821 ± 184 nM; at MYCN hairpin-G4 DNA it was 1040 ± 150 nM. The “ΔTm of MYCN G4” value in the test with MYCN G4 DNA [2] amounted to 4.6 °C. For the same compound, the “binding to dsDNA on SPR” value in the test on dsDNA was “dose-dependent binding signals”.
